According to ChEMBL document CHEMBL4041521, “3-Aroylindoles display antitumor activity in vitro and in vivo: Effects of N1-substituents on biological activity” (Eur J Med Chem, 2017):
The source made the active and inactive calls. No cut-off for these calls is given here.

Legend:
[1] = Inhibition of HDAC activity in human HeLa cell nuclear extract using fluorometric substrate measured after 30 mins by fluorescence assay; type: cell-based
A549 = test: Antiproliferative activity against human A549 cells measured after 48 hrs by sulforhodamine-B assay; type: functional, cell-based; conditions: A549, 48 h
Sus scrofa = species on record: Sus scrofa; test: Inhibition of purified porcine tubulin polymerization at 1 to 10 uM measured every 1 min for 30 mins
Histone deacetylase 1 = Histone deacetylase 1 (Homo sapiens, UniProt Q13547); test: Inhibition of recombinant human HDAC1 using fluorogenic substrate by fluorescence assay
Chain of Histone deacetylase 1 (Q13547 whole entry): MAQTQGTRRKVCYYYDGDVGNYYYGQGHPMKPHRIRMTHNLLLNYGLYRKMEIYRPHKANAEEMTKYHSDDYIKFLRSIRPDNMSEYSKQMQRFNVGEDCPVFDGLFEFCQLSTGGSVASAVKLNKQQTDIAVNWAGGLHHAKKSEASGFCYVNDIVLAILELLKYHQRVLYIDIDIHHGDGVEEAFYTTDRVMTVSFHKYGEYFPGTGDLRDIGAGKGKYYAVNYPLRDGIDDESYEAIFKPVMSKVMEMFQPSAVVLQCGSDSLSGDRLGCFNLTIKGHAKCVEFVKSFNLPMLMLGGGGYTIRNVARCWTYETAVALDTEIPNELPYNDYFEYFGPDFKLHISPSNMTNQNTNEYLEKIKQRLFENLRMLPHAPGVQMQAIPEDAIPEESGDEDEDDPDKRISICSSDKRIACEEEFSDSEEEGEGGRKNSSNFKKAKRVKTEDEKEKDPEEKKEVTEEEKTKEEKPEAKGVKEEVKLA

[2] = biological target: T1, Protein deacetylase HDAC6 (Homo sapiens, UniProt Q9UBN7); test: Inhibition of recombinant human HDAC6 using fluorogenic substrate by fluorescence assay
T1 sequence (Q9UBN7 whole entry): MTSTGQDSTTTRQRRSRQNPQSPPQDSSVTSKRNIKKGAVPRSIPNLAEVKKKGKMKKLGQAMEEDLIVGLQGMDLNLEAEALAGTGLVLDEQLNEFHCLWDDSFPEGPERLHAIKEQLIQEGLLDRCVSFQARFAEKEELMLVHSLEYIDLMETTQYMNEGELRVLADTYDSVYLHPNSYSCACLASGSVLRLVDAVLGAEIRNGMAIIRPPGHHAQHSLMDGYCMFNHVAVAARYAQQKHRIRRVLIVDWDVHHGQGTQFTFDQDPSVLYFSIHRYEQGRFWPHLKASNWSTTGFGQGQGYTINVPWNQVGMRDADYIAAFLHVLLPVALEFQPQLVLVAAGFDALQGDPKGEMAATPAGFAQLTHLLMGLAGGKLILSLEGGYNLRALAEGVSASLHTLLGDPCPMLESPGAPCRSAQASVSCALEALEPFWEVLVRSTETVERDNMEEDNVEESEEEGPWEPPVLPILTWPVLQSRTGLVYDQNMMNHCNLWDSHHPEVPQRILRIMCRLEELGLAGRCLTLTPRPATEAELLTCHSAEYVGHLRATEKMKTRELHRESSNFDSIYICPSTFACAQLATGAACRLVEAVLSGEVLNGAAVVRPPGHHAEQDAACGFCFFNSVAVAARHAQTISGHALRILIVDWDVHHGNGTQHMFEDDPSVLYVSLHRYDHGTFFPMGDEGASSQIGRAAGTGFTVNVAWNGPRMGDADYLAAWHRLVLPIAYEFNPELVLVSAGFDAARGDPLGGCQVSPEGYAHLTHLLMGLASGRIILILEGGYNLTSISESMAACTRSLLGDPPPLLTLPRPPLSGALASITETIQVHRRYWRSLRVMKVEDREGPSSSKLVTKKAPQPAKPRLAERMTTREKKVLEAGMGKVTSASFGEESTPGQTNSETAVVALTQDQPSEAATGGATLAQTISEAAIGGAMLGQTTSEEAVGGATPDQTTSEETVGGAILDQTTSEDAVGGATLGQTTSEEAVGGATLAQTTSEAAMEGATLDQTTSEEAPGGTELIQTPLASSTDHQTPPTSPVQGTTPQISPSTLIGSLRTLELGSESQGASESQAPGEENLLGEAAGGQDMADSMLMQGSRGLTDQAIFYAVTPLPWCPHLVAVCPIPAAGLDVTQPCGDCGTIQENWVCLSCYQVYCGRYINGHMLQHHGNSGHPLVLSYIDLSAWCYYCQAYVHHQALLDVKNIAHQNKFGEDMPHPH

Histone deacetylase 3 = Histone deacetylase 3 (Homo sapiens, UniProt O15379); test: Inhibition of recombinant human HDAC3 using fluorogenic substrate by fluorescence assay
Chain of Histone deacetylase 3 (O15379 whole entry): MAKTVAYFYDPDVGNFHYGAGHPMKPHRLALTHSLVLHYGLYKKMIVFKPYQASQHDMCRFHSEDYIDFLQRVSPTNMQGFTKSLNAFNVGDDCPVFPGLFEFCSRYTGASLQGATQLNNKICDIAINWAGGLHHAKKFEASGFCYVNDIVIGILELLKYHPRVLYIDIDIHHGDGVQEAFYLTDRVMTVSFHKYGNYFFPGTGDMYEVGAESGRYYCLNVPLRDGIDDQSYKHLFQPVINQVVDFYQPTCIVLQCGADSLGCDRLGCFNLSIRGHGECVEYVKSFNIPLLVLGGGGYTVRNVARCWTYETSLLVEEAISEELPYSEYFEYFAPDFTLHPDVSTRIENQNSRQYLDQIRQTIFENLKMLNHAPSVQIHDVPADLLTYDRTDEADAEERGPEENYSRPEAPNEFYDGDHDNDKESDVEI

Histone deacetylase 5 = Histone deacetylase 5 (Homo sapiens, UniProt Q9UQL6); test: Inhibition of recombinant human HDAC5 using fluorogenic substrate by fluorescence assay
Chain of Histone deacetylase 5 (Q9UQL6 whole entry): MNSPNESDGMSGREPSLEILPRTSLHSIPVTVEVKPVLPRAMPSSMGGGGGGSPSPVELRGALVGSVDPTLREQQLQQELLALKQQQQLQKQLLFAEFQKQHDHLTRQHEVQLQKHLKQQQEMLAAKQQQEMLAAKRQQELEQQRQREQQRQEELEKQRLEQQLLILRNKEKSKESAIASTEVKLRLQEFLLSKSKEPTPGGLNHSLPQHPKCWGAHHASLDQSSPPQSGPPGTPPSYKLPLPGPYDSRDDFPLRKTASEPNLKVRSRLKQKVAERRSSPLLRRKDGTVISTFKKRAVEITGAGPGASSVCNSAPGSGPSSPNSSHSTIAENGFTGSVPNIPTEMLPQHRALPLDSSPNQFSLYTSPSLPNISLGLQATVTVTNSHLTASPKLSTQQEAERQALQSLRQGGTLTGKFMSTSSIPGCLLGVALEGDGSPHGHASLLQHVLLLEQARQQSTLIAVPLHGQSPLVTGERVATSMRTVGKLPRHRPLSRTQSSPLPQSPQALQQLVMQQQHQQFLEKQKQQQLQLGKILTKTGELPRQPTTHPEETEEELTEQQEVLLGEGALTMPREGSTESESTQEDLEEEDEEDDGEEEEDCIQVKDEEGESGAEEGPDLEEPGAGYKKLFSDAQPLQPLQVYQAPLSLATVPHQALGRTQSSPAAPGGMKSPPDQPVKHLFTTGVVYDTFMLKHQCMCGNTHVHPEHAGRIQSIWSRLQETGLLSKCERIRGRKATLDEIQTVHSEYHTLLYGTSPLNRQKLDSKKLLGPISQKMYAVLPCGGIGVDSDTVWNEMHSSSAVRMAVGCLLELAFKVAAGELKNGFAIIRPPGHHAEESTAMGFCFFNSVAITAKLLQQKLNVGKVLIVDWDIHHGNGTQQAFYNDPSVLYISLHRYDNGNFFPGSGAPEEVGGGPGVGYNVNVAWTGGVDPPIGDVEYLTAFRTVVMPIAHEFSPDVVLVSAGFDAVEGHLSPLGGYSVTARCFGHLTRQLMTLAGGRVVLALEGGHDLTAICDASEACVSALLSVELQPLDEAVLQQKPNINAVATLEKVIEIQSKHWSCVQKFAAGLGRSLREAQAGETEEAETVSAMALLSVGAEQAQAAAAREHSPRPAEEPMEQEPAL

Histone deacetylase 8 = biological target: T2, Histone deacetylase 8 (Homo sapiens, UniProt Q9BY41); test: Inhibition of recombinant human HDAC8 using fluorogenic substrate by fluorescence assay
T2 sequence (Q9BY41 whole entry): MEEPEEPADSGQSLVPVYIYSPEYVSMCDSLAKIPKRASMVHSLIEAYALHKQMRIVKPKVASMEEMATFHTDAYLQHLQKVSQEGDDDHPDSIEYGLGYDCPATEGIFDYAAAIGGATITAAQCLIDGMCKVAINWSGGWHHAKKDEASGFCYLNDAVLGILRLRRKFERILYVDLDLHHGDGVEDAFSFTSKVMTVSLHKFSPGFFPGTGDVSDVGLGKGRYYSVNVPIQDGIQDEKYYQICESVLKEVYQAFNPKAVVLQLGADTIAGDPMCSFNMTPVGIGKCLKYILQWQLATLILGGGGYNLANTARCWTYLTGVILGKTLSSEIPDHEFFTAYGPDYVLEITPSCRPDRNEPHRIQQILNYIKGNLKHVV

[3] = biological target: T3, Polyamine deacetylase HDAC10 (Homo sapiens, UniProt Q969S8); test: Inhibition of recombinant human HDAC10 using fluorogenic substrate by fluorescence assay
T3 sequence (Q969S8 whole entry): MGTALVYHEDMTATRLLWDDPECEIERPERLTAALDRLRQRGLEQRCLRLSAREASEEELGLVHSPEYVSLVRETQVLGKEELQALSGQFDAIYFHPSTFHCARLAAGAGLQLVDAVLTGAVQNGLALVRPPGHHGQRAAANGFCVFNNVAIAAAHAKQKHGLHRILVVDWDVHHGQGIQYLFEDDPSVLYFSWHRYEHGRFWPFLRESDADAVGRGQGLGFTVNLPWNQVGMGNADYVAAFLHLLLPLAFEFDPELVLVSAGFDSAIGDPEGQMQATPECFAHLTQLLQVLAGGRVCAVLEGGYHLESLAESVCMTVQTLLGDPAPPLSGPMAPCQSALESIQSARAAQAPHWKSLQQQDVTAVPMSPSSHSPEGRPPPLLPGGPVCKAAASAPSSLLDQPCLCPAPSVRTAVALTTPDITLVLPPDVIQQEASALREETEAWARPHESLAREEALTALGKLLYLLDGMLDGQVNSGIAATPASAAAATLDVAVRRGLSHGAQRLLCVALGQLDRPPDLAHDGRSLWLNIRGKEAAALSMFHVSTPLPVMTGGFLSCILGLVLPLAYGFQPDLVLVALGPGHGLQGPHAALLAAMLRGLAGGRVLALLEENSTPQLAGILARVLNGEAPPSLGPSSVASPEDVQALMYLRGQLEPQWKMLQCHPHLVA

Histone deacetylase 11 = biological target: T4, Histone deacetylase 11 (Homo sapiens, UniProt Q96DB2); test: Inhibition of recombinant human HDAC11 using fluorogenic substrate by fluorescence assay
T4 sequence (Q96DB2 whole entry): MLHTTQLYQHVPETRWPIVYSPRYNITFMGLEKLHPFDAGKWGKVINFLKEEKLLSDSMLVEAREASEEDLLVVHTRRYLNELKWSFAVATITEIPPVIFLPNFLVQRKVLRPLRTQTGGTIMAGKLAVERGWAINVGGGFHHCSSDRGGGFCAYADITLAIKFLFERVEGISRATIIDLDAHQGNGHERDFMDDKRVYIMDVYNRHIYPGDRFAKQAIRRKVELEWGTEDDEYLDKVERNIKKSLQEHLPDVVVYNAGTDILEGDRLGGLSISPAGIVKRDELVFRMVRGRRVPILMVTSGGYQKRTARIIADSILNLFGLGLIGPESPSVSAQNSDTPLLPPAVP

Row | Structure (SMILES) | IC50 [1] [nM] | IC50 (A549) [nM] | inhibition (Sus scrofa) | IC50 (Histone deacetylase 1) [nM] | IC50 [2] [nM] | IC50 (Histone deacetylase 3; read-out: IC50) [nM] | IC50 (Histone deacetylase 5) [nM] | IC50 (Histone deacetylase 8) [nM] | IC50 ([3]; read-out: IC50) [nM] | IC50 (Histone deacetylase 11) [nM] | IC50 (Histone deacetylase 3) | IC50 [3]
1 | COc1ccc2c(C(=O)c3cc(OC)c(OC)c(OC)c3)cn(Cc3ccc(C(=O)NO)cc3)c2c1 | 611 | 206 | Active | 573 | 64.5 | 6530 | 1030 | 390 | 8230 | 651 |  | 
2 | COc1ccc2c(C(=O)c3cc(OC)c(OC)c(OC)c3)cn(S(=O)(=O)c3cccc(/C=C/C(=O)NO)c3)c2c1 | 135 | 72.5 | Active | 468 | 275 |  | 356000 | 16200 |  | 8870 | Not Active | Not Active
